For one series, the target named is T1, AhR (Homo sapiens, UniProt P35869).
T1 construct: One of the resultant clones was named HEK-XRE 11.1, and used in the reporter gene assays; endogenous in cells; host or cells: HEK-XRE 11.1 (HEK cells stably carrying the AhR-responsive luciferase reporter X4-4.27 and phRL-CMV)
T1 sequence (P35869 11-848): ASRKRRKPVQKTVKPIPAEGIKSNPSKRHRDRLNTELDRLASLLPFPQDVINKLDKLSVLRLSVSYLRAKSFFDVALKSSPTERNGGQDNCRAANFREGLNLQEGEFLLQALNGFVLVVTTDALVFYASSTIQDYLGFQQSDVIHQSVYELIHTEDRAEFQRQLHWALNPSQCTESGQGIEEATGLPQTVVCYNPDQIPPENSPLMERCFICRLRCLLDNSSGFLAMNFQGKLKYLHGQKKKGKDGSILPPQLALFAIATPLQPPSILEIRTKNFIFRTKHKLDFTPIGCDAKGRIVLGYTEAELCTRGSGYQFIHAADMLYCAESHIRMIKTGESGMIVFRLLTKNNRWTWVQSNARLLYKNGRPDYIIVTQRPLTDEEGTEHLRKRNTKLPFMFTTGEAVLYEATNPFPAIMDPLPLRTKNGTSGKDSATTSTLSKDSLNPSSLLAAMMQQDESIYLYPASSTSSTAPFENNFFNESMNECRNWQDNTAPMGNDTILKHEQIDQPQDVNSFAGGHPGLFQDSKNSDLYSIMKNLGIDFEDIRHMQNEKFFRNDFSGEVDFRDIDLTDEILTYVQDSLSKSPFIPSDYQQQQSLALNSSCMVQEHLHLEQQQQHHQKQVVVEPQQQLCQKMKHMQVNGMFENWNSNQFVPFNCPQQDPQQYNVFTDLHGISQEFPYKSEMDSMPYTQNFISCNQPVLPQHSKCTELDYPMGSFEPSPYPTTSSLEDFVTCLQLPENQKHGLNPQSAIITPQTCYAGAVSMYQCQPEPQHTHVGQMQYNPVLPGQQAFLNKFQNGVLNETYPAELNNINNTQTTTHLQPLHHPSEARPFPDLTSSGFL
Kind of series: Inhibition of AhR-mediated gene transcription (HEK-XRE 11.1 luciferase reporter, MeBIO induction). To be noted: HEK-XRE 11.1 cells, MeBIO 0.1 nM, luminescence after 24 hours; Table 1. It counts as cell-based. As for the experimental part: HEK cells line was transfected with an AhR-responsive firefly luciferase reporter gene X4-4.27 and the stable transfectants generated were again transfected with phRL-CMV (a Renilla luciferase expression vector; Promega) along with pBAsi-hU6 Pur DNA (a plasmid carrying the puromycin-resistant gene; TaKaRa, Shiga, Japan), and maintained in the presence of both hygromycin B and puromycin (2 mg/mL). One of the resultant clones was named HEK-XRE 11.1, and used in the reporter gene assays.
HEK-XRE 11.1 cells were plated in 384-well plates at a density of 25,000 cells in 50 uL volume per well. The induction of ARh pathway was done by addition of MeBIO at 0.1 nM concentration. ARh antagonist compounds were then added to seeded cells in serial dilutions (8 dilutions, 1:[…] down to 5 nM) in duplicate wells. Renilla expression was not used as internal control. On each plate, Compound 1001 and SR1 were added as dose control (8 dilutions, 1:3, 5 mM down to 2.5 nM for SR1 and 2 mM down to 1 nM for compound 1001). Luminescence activity was evaluated after 24 hours culture using Lumi-384-CellTiterGlo-Corning protocol. Dose-response curves were generated using nonlinear regression in Excel.
For orientation: In a reporter assay the amount or activity of a reporter protein is the signal.

Series [1] has as its system Human CD34+ cord blood (CB) cells. Kind of series: CD34+ activity assessment (7-day expansion of pre-expanded CD34+ cells, flow cytometry). To be noted: concentration at which compound/vehicle ratio of CD34+ cell number is >= 1.5; 7 days, with 35 nM UM0128171; Table 1. Type of series: cell-based. As to the method:
Human CD34+ cord blood (CB) cells were isolated from fresh units using RosetteSep™ 0034 pre-enrichment cocktail followed by CD34 positive selection using EasySep Kit™ (StemCell Technologies). The cells were then pre-expanded in bulk, by culturing at 37° C. for 6 days in HSC expansion media consisting of StemSpan ACF (StemCell Technologies) supplemented with 100 ng/mL Stem Cell Factor (SCF, Shenandoah), 100 ng/mL FMS-like Tyrosine Kinase 3 Ligand (FLT3L, Shenandoah), 50 ng/mL Thrombopoietin (TPO, Shenandoah), 2 mM GlutaMAX™ (Invitrogen), 10 μg/mL low density lipoproteins (LDL, StemCell Technologies), 10 μg/mL Ciprofloxacin and 35 nM UM0128171. […] Following the pre-expansion, cells were harvested, aliquoted and frozen until use.
For each activity assessment, CD34+ pre-expanded cells (approximately 2000 per well in a 384-well plate) were cultured in HSC expansion media, in the presence of 35 nM UM0128171. Compounds were serially diluted (1/2) in DMSO (10 dilutions per compound) and added to the cells in order to achieve a 1/1000 final dilution. StemRegenin1 (SR1) and/or Compound 1001 were included in all experiments as controls to monitor assay performance. The plate was incubated at 37° C. for 7 days in static conditions (i.e. no shaking and no addition of media). Flow cytometry analysis was performed at the end of the 7-day expansion. Cells were stained with PE-labeled anti-human CD45RA (BD Biosciences) and APC-labeled anti-human CD34 (BD Biosciences) and analyzed using Intellicyt IQue cytometer equipped with ForeCyt software. Gates were drawn around the populations of interest to obtain cell numbers and relative proportions. The EC1.5 value, which is the concentration at which the compound/vehicle ratio is greater or equal to 1.5, was calculated by plotting the CD34+ cell number against concentrations (log-scale) in a 4-PL curve and fitting the curve using IDBS XLfit (set model 251) in Microsoft Excel.

A value given as a limit tells only on which side of the number the result lay.

In general, IC50 refers to the concentration needed to halve the response being measured. The molecule `Nc1c(C(=O)Nc2ccc(CCO)cc2)sc2ncc(C(F)(F)F)cc12` [Compound 1017] came in with an IC50 at AhR of 50 to 500 nM. Moreover, the EC1.5 in series [1] is 100 to 1000 nM.
The matching figures for `COCc1ccc(NC(=O)c2sc3ncc(C(F)(F)F)cc3c2N)cc1` [Compound 1018]: less than 50 nM and 1000 to 5000 nM.
The like results for `Nc1c(C(=O)Nc2ccc(CO)cc2)sc2ncc(C(F)(F)F)cc12` [Compound 1019] were, in that order, more than 500 nM and more than 5000 nM.
The matching figures for `Nc1c(C(=O)Nc2ccccn2)sc2ncc(C(F)(F)F)cc12` [Compound 1022]: less than 50 nM and 100 to 1000 nM.
Take `Cc1cnc(NC(=O)c2sc3ncc(C(F)(F)F)cc3c2N)s1` [Compound 1023]: the IC50 against AhR is 50 to 500 nM. For the same molecule, in series [1], the EC1.5 is given as more than 5000 nM.
For `CCc1ccc(NC(=O)c2sc3ncc(C(F)(F)F)cc3c2N)cc1` [Compound 1024], the IC50 at AhR was less than 50 nM. The EC1.5 in series [1] is 100 to 1000 nM.
Take `Nc1c(C(=O)Nc2ccccc2)sc2cnc(C(F)(F)F)cc12` [Compound 1025]: on AhR, the IC50 was less than 50 nM. The EC1.5 in series [1] is 100 to 1000 nM.
At AhR, `Nc1c(C(=O)Nc2ccncc2)sc2cnc(C(F)(F)F)cc12` [Compound 1026] yielded an IC50 of 50 to 500 nM. Also, the EC1.5 in series [1] was in the range of 1000 to 5000 nM.
The matching figures for `Nc1c(C(=O)Nc2ccccc2)sc2ccc(C(F)(F)F)nc12` [Compound 1027]: less than 50 nM and more than 5000 nM.
The matching figures for `Nc1c(C(=O)Nc2ccncc2)sc2ccc(C(F)(F)F)nc12` [Compound 1028]: 50 to 500 nM and more than 5000 nM.
For the molecule `Nc1c(C(=O)Nc2ccc3ncsc3c2)sc2ncc(C(F)(F)F)cc12` [Compound 1029], the IC50 on AhR was 50 to 500 nM. Besides, the EC1.5 in series [1] fell in the range of 100 to 1000 nM.
The like results for `Nc1c(C(=O)Nc2ccc(-c3ccccc3)cc2)sc2ncc(C(F)(F)F)cc12` [Compound 1030] were, in that order, 50 to 500 nM and more than 5000 nM.
On AhR, `Nc1c(C(=O)Nc2ccc(OCc3ccccc3)cc2)sc2ncc(C(F)(F)F)cc12` [Compound 1031] had an IC50 of 50 to 500 nM. For the same molecule, the EC1.5 in series [1] was 100 to 1000 nM.
The matching figures for `CCOC(=O)Cc1ccc(NC(=O)c2sc3ncc(C(F)(F)F)cc3c2N)cc1` [Compound 1032]: 50 to 500 nM and 1000 to 5000 nM.
The like results for `COc1ccc(NC(=O)c2sc3ncc(C(F)(F)F)cc3c2N)cc1-c1ccccc1` [Compound 1033] were, in that order, 50 to 500 nM and 100 to 1000 nM.
On AhR, `Nc1c(C(=O)Nc2ccccc2)sc2ccc(C(F)(F)F)cc12` [Compound 1034] had an IC50 of less than 50 nM. Further, the EC1.5 in series [1] fell in the range of 100 to 1000 nM.
Take `Nc1c(C(=O)Nc2ccncc2)sc2ccc(C(F)(F)F)cc12` [Compound 1035]: the half-maximal inhibitory concentration (IC50) against AhR was less than 50 nM. Moreover, in series [1], the EC1.5 is 100 to 1000 nM.
The like results for `Nc1c(C(=O)Nc2cccc(Br)c2)sc2ncc(C(F)(F)F)cc12` [Compound 1036] were, in that order, less than 50 nM and 100 to 1000 nM.
At AhR, `N#CCc1ccc(NC(=O)c2sc3ncc(C(F)(F)F)cc3c2N)cc1` [Compound 1038] had an IC50 of less than 50 nM. Further, the EC1.5 in series [1] is reported as more than 5000 nM.
The matching figures for `Nc1c(C(=O)Nc2cccc3cnccc23)sc2ncc(C(F)(F)F)cc12` [Compound 1039]: 50 to 500 nM and more than 5000 nM.
The matching figures for `Nc1c(C(=O)Nc2cccc3ncccc23)sc2ncc(C(F)(F)F)cc12` [Compound 1040]: 50 to 500 nM and more than 5000 nM.
In turn, `Nc1c(C(=O)Nc2ccc3ncccc3c2)sc2ncc(C(F)(F)F)cc12` [Compound 1041] showed an IC50 against AhR of 50 to 500 nM. Besides, the EC1.5 in series [1] was 1000 to 5000 nM.
The like results for `Nc1c(C(=O)Nc2cnc3ccccc3c2)sc2ncc(C(F)(F)F)cc12` [Compound 1042] were, in that order, more than 500 nM and 1000 to 5000 nM.
The matching figures for `Nc1c(C(=O)Nc2ccnc3ccccc23)sc2ncc(C(F)(F)F)cc12` [Compound 1043]: more than 500 nM and more than 5000 nM.
In turn, `CCOC(=O)c1cnc2sc(C(=O)Nc3ccccc3)c(N)c2c1` [Compound 1044] showed an IC50 at AhR of 50 to 500 nM. Also, the EC1.5 in series [1] is more than 5000 nM.
For the molecule `Nc1c(C(=O)Nc2ccc(Cl)cc2)sc2ncc(C(F)(F)F)cc12` [Compound 1045], the IC50 on AhR is less than 50 nM. For the same molecule, in series [1], the EC1.5 was less than 100 nM.
The like results for `COCCc1ccc(NC(=O)c2sc3ncc(C(F)(F)F)cc3c2N)cc1` [Compound 1046] were, in that order, 50 to 500 nM and more than 5000 nM.
The like results for `Cc1ccc(NC(=O)c2sc3ncc(C(F)(F)F)cc3c2N)cc1` [Compound 1047] were, in that order, less than 50 nM and 100 to 1000 nM.
On to `COc1ccc(NC(=O)c2sc3ncc(C(F)(F)F)cc3c2N)cc1` [Compound 1048], for which, on AhR, the IC50 was less than 50 nM. The EC1.5 in series [1] is on record as less than 100 nM.
The matching figures for `Nc1c(C(=O)Nc2ccc(Cl)cc2)sc2cnc(C(F)(F)F)cc12` [Compound 1051]: 50 to 500 nM and 1000 to 5000 nM.
The matching figures for `Cc1ccc(NC(=O)c2sc3cnc(C(F)(F)F)cc3c2N)cc1` [Compound 1052]: 50 to 500 nM and 1000 to 5000 nM.
The matching figures for `Nc1c(C(=O)Nc2ccc(-c3ccncc3)cc2)sc2ncc(C(F)(F)F)cc12` [Compound 1056]: 50 to 500 nM and more than 5000 nM.
As to `Nc1c(C(=O)Nc2cccc(-c3cccnc3)c2)sc2ncc(C(F)(F)F)cc12` [Compound 1057], on AhR, the IC50 was less than 50 nM. Also, the EC1.5 in series [1] is 1000 to 5000 nM.
In turn, `Nc1c(C(=O)Nc2cccc(-c3ccncc3)c2)sc2ncc(C(F)(F)F)cc12` [Compound 1058] yielded an IC50 at AhR of less than 50 nM. For the same molecule, in series [1], the EC1.5 was 100 to 1000 nM.
The like results for `Nc1c(C(=O)Nc2cccc(-c3ccccc3)c2)sc2ncc(C(F)(F)F)cc12` [Compound 1059] were, in that order, 50 to 500 nM and 1000 to 5000 nM.
The like results for `Nc1c(C(=O)Nc2ccc(C(F)(F)F)cc2)sc2ncc(C(F)(F)F)cc12` [Compound 1061] were, in that order, less than 50 nM and less than 100 nM.
The like results for `Cc1cnc2sc(C(=O)Nc3ccc(Br)cc3)c(N)c2c1` [Compound 1062] were, in that order, less than 50 nM and less than 100 nM.

The record behind these values is patent publication US11696928B2, “Compounds and use thereof in the expansion of stem cells and/or progenitor cells” (UNIVERSITE DE MONTREAL, priority 2017, dated 2023).
